Measurements taken from patent US6852737B2 (Recordati Ireland Limited, priority 2001, dated 2005).
Where “and” joins values, the source holds several entries; their conditions need not be identical. Identical values can stand only once. Entries after “also recorded” stand apart in the source; their conditions may differ. Counter-ions that a name gives are not always drawn. Marks after values point to notes of the source that are not given here.

Experiments:
[1] = Hygroscopicity (DVS analysis); assay type: physicochemical; settings: 25° C.
Description: The hygroscopicity of both crystalline Forms (I) and (II) was measured with DVS analysis by means of a water absorption analyzer (SURFACE MEASUREMENT SYSTEM, Marion, Buckinghamshire, UK) according to the following working conditions: […]

[2] = Stability of crystalline forms; assay type: physicochemical; settings: hydrochloride
[3] = Bioavailability of crystalline forms in dog; assay type: in vivo, Beagle dogs
Description: A study was carried out on six Beagle dogs to evaluate the bioavailability of crystalline Forms (I) and (II).
Blood samples were taken at given times and plasma concentrations of lercanidipine were determined with a stereoselective analytical method HPLC-MS/MS, according to the following working conditions;
Lercanidipine was extracted from dog plasma by means of a liquid-liquid extraction with a mixture of n-hexane and ethyl ether. The dry residue of the organic phase was taken up with a mixture of methanol and water and a liquid-phase chromatographic separation (LC) was carried out; the two enantiomers of lercanidipine were separated on a CHIROBIOTIC V column (Vancomycin) (particle size […], column size 150×4.6 mm (ASTEC, NJ, USA)) and were detected with a mass spectrometer (MS/MS) by using an electrospray technique.
The analytical method was validated in a concentration range between 0.1 and 20 ng/ml of plasma for both enantiomers. The method has shown to be specific with an accuracy of 15%. The average concentrations of lercanidipine in the tables represent the sum of both enantiomers.

[4] = Relative bioavailability in man; assay type: in vivo; settings: for bioequivalence to Form I / AUC0−t, geom. least square mean / Cmax, geom. least square mean / tmax, median: 10 mg tablet; for bioequivalence to Form I / AUC0−t, geom. least square mean / Cmax, geom. least square mean / tmax, median / time of maximum concentration (tmax) compared to the other crystalline form: hydrochloride; for AUC0−t, geom. least square mean / Cmax, geom. least square mean / tmax, median / time of maximum concentration (tmax) compared to the other crystalline form: single dose; for AUC0−t, geom. least square mean: 16 volunteers
Description: Blood samples were taken at 15 points from time 0 to 24 h post-dosing and plasma concentrations of lercanidipine were determined with a stereoselective analytical method HPLC-MS/MS as described in Example 19a, as validated for man at the same concentration intervals.

[5] = oral administration; cited from earlier work
isolated rat aorta = settings: drug removed from the environment of the aortic tissue for 6 hours; cited from earlier work
[6] = 0 h, Mean (dog 2 not included), oral 3 mg/kg
[7] = 0.5 h, Dog 1, oral 3 mg/kg, hydrochloride, 3 mg/kg
[8] = 0.5 h, Dog 3, oral 3 mg/kg, hydrochloride, 3 mg/kg
[9] = 0.5 h, Mean (dog 2 not included), oral 3 mg/kg, hydrochloride, 3 mg/kg
[10] = 1 h, Dog 1, oral 3 mg/kg, hydrochloride, 3 mg/kg
[11] = 1 h, Dog 3, oral 3 mg/kg, hydrochloride, 3 mg/kg
[12] = 1 h, Dog 4, oral 3 mg/kg, hydrochloride, 3 mg/kg
[13] = 1 h, Dog 5, oral 3 mg/kg, hydrochloride, 3 mg/kg
[14] = 1.5 h, Dog 4, oral 3 mg/kg, hydrochloride, 3 mg/kg
[15] = 1.5 h, Dog 6, oral 3 mg/kg, hydrochloride, 3 mg/kg
[16] = 6 h (last sampling time), Mean (dog 2 not included), oral 3 mg/kg, hydrochloride, 3 mg/kg
[17] = Dog 2, oral 3 mg/kg, hydrochloride, 3 mg/kg
[18] = Dog 3, oral 3 mg/kg, hydrochloride, 3 mg/kg
[19] = Dog 4, oral 3 mg/kg, hydrochloride, 3 mg/kg

In the case of `COC(=O)C1=C(C)NC(C)=C(C(=O)OC(C)(C)CN(C)CCC(c2ccccc2)c2ccccc2)C1c1cccc([N+](=O)[O-])c1` (single isomer, unassigned) [Form (II), lercanidipine hydrochloride], the mass variation ([1]; whole RH range tested (0-95%)) is reported as < 0.05%, the stability [2] is reported as “good stability; also recorded: stable” and the “concentration in plasma of lercanidipine (S + R)” value (shortened to “concentration in plasma”) ([3]; 0 h, Dog 1, oral 3 mg/kg) is reported as 0.00 ng/mL. For the same compound, the “concentration in plasma” value ([3]; 0 h, Dog 2, oral 3 mg/kg) was 0.00 ng/mL, the “concentration in plasma” value ([3]; 0 h, Dog 3, oral 3 mg/kg) was 0.00 ng/mL and the “concentration in plasma” value ([3]; 0 h, Dog 4, oral 3 mg/kg) was 0.00 ng/mL. For the same compound, the “concentration in plasma” value ([3]; 0 h, Dog 5, oral 3 mg/kg) was 0.00 ng/mL, the “concentration in plasma” value ([3]; 0 h, Dog 6, oral 3 mg/kg) was 0.00 ng/mL and the “concentration in plasma” value [3, 6] was 0.00 ng/mL. For the same compound, the “concentration in plasma” value [3, 7] was 0.00 ng/mL, the “concentration in plasma” value [3, 8] was 6.99 ng/mL and the “concentration in plasma” value ([3]; 0.5 h, Dog 4, oral 3 mg/kg) was 0.00 ng/mL. The “concentration in plasma” value ([3]; 0.5 h, Dog 5, oral 3 mg/kg) was 0.00 ng/mL, the “concentration in plasma” value ([3]; 0.5 h, Dog 6, oral 3 mg/kg) was 0.00 ng/mL and the “concentration in plasma” value [3, 9] was 1.40 ng/mL. The “concentration in plasma” value [3, 10] was 0.00 ng/mL, the “concentration in plasma” value [3, 11] was 16.61 ng/mL and the “concentration in plasma” value [3, 12] was 5.50 ng/mL. The “concentration in plasma” value [3, 13] was 3.28 ng/mL, the “concentration in plasma” value ([3]; 1 h, Dog 6, oral 3 mg/kg) was 0.00 ng/mL and the “concentration in plasma” value ([3]; 1.5 h, Dog 1, oral 3 mg/kg, hydrochloride, 3 mg/kg) was 0.23 ng/mL. For the same compound, the “concentration in plasma” value [3, 14] was 35.43 ng/mL, the “concentration in plasma” value [3, 15] was 3.49 ng/mL and the “concentration in plasma” value ([3]; 2 h, Dog 1, oral 3 mg/kg, hydrochloride, 3 mg/kg) was 7.63 ng/mL. For the same compound, the “concentration in plasma” value ([3]; 3 h, Dog 4, oral 3 mg/kg, hydrochloride, 3 mg/kg) was 28.36 ng/mL, the “concentration in plasma” value ([3]; 3 h, Dog 5, oral 3 mg/kg, hydrochloride, 3 mg/kg) was 40.57 ng/mL and the “concentration in plasma” value ([3]; 3 h, Dog 6, oral 3 mg/kg, hydrochloride, 3 mg/kg) was 14.10 ng/mL. The “concentration in plasma” value ([3]; 4 h, Dog 3, oral 3 mg/kg, hydrochloride, 3 mg/kg) was 14.10 ng/mL, the “concentration in plasma” value ([3]; 4 h, Dog 5, oral 3 mg/kg, hydrochloride, 3 mg/kg) was 23.66 ng/mL and the “concentration in plasma” value [3, 16] was 10.9 ± 6.8 ng/mL. For the same compound, the “concentration in plasma” value ([3]; 6 h, Dog 2, oral 3 mg/kg, hydrochloride, 3 mg/kg) was 4.50 ng/mL, the Tmax [3, 17] was 1.50 h and the Cmax [3, 18] was 19.78 ng/mL. The Cmax [3, 19] was 52.64 ng/mL, the Cmax ([3]; Dog 6, oral 3 mg/kg, hydrochloride, 3 mg/kg) was 18.56 ng/mL and the “bioequivalence to Form I” value [4] was “not bioequivalent”. For the same compound, the “bioequivalence to Form I” value ([4]; listed as Form II) was “non equivalent”, the “AUC0−t, geom. least square mean” value [4] was 10.36 ng·h/mL and the “Cmax, geom. least square mean” value [4] was 3.22 ng/mL. For the same compound, the “tmax, median” value [4] was 2.50* h, the “tmax Point Estimate (T/R), median difference” value ([4]; T = Form (II) tablet, R = Form (I) tablet (Zanedip 10 mg)) was 0.75** h and the “time of maximum concentration (tmax) compared to the other crystalline form” value [4] was “delayed”.
For `COC(=O)C1=C(C)NC(C)=C(C(=O)OC(C)(C)CN(C)CCC(c2ccccc2)c2ccccc2)C1c1cccc([N+](=O)[O-])c1` (stereo not drawn) [Lercanidipine, methyl 1,1,N-trimethyl-N-(3,3-diphenylpropyl)-2-aminoethyl 1,4-dihydro-2,6-dimethyl-4-(3-nitrophenyl)pyridine-3,5-dicarboxylate], the “time of peak plasma levels following dosing” value [5] is listed as 2 to 3 h and the “response to high K+ after the drug has been removed” value (isolated rat aorta) is listed as “attenuated”.
With `COC(=O)C1=C(C)NC(C)=C(C(=O)OC(C)(C)CN(C)CCC(c2ccccc2)c2ccccc2)C1c1cccc([N+](=O)[O-])c1` (single isomer, unassigned) [Form (I), lercanidipine hydrochloride] the mass change ([1]; 0% RH) was −0.3%, the mass change ([1]; 95% RH) was “+0.15%” and the stability [2] was “good stability; also recorded: stable”. For the same compound, the “concentration in plasma” value ([3]; 0 h, Dog 1, oral 3 mg/kg) was 0.00 ng/mL, the “concentration in plasma” value ([3]; 0 h, Dog 2, oral 3 mg/kg) was 0.00 ng/mL and the “concentration in plasma” value ([3]; 0 h, Dog 3, oral 3 mg/kg) was 0.00 ng/mL. The “concentration in plasma” value ([3]; 0 h, Dog 4, oral 3 mg/kg) was 0.00 ng/mL, the “concentration in plasma” value ([3]; 0 h, Dog 5, oral 3 mg/kg) was 0.00 ng/mL and the “concentration in plasma” value ([3]; 0 h, Dog 6, oral 3 mg/kg) was 0.00 ng/mL. The “concentration in plasma” value [3, 6] was 0.00 ng/mL, the “concentration in plasma” value [3, 7] was 0.1 ng/mL and the “concentration in plasma” value ([3]; 0.5 h, Dog 2, oral 3 mg/kg, hydrochloride, 3 mg/kg) was 0.20 ng/mL. For the same compound, the “concentration in plasma” value [3, 8] was 0.00 ng/mL, the “concentration in plasma” value ([3]; 0.5 h, Dog 4, oral 3 mg/kg) was 0.00 ng/mL and the “concentration in plasma” value ([3]; 0.5 h, Dog 5, oral 3 mg/kg) was 0.00 ng/mL. The “concentration in plasma” value ([3]; 0.5 h, Dog 6, oral 3 mg/kg) was 0.00 ng/mL, the “concentration in plasma” value [3, 9] was 0.00 ng/mL and the “concentration in plasma” value [3, 10] was 0.59 ng/mL. For the same compound, the “concentration in plasma” value ([3]; 1 h, Dog 2, oral 3 mg/kg, hydrochloride, 3 mg/kg) was 0.29 ng/mL, the “concentration in plasma” value [3, 11] was 0.00 ng/mL and the “concentration in plasma” value [3, 12] was 0.00 ng/mL. For the same compound, the “concentration in plasma” value [3, 13] was 0.00 ng/mL, the “concentration in plasma” value ([3]; 1 h, Dog 6, oral 3 mg/kg) was 0.00 ng/mL and the “concentration in plasma” value ([3]; 1 h, Mean (dog 2 not included), oral 3 mg/kg, hydrochloride, 3 mg/kg) was 0.12 ng/mL. For the same compound, the “concentration in plasma” value ([3]; 1.5 h, Dog 3, oral 3 mg/kg, hydrochloride, 3 mg/kg) was 0.32 ng/mL, the “concentration in plasma” value [3, 14] was 0.00 ng/mL and the “concentration in plasma” value [3, 15] was 0.00 ng/mL. For the same compound, the “concentration in plasma” value ([3]; 1.5 h, Mean (dog 2 not included), oral 3 mg/kg, hydrochloride, 3 mg/kg) was 0.70 ng/mL, the “concentration in plasma” value ([3]; 2 h, Dog 3, oral 3 mg/kg, hydrochloride, 3 mg/kg) was 0.94 ng/mL and the “concentration in plasma” value ([3]; 2 h, Dog 4, oral 3 mg/kg, hydrochloride, 3 mg/kg) was 0.35 ng/mL. For the same compound, the “concentration in plasma” value ([3]; 2 h, Dog 6, oral 3 mg/kg, hydrochloride, 3 mg/kg) was 0.28 ng/mL, the “concentration in plasma” value ([3]; 3 h, Dog 3, oral 3 mg/kg, hydrochloride, 3 mg/kg) was 0.92 ng/mL and the “concentration in plasma” value [3, 16] was 8.5 ± 6.5 ng/mL and 8.50 ng/mL. For the same compound, the “concentration in plasma” value ([3]; 6 h, Dog 1, oral 3 mg/kg, hydrochloride, 3 mg/kg) was 0.80 ng/mL, the “concentration in plasma” value ([3]; 6 h, Dog 5, oral 3 mg/kg, hydrochloride, 3 mg/kg) was 9.73 ng/mL and the “concentration in plasma” value ([3]; 6 h, Dog 6, oral 3 mg/kg, hydrochloride, 3 mg/kg) was 17.83 ng/mL. It also gave a Tmax ([3]; Dog 1, oral 3 mg/kg, hydrochloride, 3 mg/kg) of 2.00 h, a Tmax [3, 17] of 4.00 h and a Tmax [3, 18] of 6.00 h. For the same compound, the Tmax [3, 19] was 3.00 h, the Tmax ([3]; Dog 5, oral 3 mg/kg, hydrochloride, 3 mg/kg) was 3.00 h and the Tmax ([3]; Mean (n = 5, dog 2 not included), oral 3 mg/kg, hydrochloride, 3 mg/kg) was 4.00 h. The “AUC0−t, geom. least square mean” value [4] was 8.82 ng·h/mL, the “Cmax, geom. least square mean” value [4] was 3.18 ng/mL and the “tmax, median” value [4] was 1.50* h. The “time of maximum concentration (tmax) compared to the other crystalline form” value [4] was “shorter time”.
